Test results as given in paper PMC12724303 (Journal of Virology, 2025).
Where two headings read alike, the source gives them in different places.

How the values were obtained:
Vero E6/TMPRSS2 cells [1] = format: cell-based
Protocol: A solution of each CyD derivative, prepared in DMEM supplemented with 10% FBS and 1 mg/mL G-418, was filtered and sterilized using a DISMIC-25cs 0.45 µm filter. […] After 24 h, the cells were treated with CyD derivatives and further incubated for 72 h in a humidified incubator at 37°C with 5% CO₂. Cytotoxicity was assessed under a microscope.

[2] = biological target: SARS-CoV-2 spike protein-ACE2 binding (UniProt P0DTC2+Q9BYF1)
[3] = test system: JEV Beijing-1 variant (procoagulant activity); format: biochemical, Japanese encephalitis virus
Vero cells = format: cell-based; conditions: CCK-8, tested up to 100 mM
Vero E6/TMPRSS2 cells [4] = conditions: CCK-8, tested up to 100 mM
red blood cells = conditions: cited from earlier work
in vitro = conditions: African green monkey
Pichinde virus = conditions: guinea pigs infected with Pichinde virus, treated 6-7 days after infection; cited from earlier work
[5] = Vero E6/TMPRSS2 cells, 72 h, microscope, twofold dilutions with 10 mM as highest concentration

Sequence of SARS-CoV-2 spike protein-ACE2 binding (Q9BYF1 18-740, one chain of several): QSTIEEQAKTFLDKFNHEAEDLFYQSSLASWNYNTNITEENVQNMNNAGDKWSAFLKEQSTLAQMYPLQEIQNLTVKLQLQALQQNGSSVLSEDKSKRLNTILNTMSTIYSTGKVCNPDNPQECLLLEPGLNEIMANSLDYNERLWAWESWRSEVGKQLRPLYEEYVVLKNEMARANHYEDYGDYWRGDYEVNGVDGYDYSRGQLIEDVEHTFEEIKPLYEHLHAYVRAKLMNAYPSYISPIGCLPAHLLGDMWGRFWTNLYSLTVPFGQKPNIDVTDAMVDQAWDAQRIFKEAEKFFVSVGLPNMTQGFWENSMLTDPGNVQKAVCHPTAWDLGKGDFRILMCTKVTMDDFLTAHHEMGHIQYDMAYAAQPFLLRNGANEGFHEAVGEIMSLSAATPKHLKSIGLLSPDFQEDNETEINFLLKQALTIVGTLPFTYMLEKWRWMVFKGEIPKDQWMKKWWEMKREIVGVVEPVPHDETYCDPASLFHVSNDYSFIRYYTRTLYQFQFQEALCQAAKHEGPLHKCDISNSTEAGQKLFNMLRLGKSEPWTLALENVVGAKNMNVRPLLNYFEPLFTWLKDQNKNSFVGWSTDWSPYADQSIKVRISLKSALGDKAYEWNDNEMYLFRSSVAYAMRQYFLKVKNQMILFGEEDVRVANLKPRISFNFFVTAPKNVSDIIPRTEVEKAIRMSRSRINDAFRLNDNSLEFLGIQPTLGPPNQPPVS

OC[C@H]1O[C@@H]2O[C@H]3[C@H](O)[C@@H](O)[C@@H](O[C@H]4[C@H](O)[C@@H](O)[C@@H](O[C@H]5[C@H](O)[C@@H](O)[C@@H](O[C@H]6[C@H](O)[C@@H](O)[C@@H](O[C@H]7[C@H](O)[C@@H](O)[C@@H](O[C@H]8[C@H](O)[C@@H](O)[C@@H](O[C@H]1[C@H](O)[C@H]2O)O[C@@H]8CO)O[C@@H]7CO)O[C@@H]6CO)O[C@@H]5CO)O[C@@H]4CO)O[C@@H]3CO [β-CyD] gave a Highest non-toxic concentration (Vero E6/TMPRSS2 cells [1]; [5]) of at least 10.0 mM.

With OC[C@H]1O[C@@H]2O[C@H]3[C@H](O)[C@@H](O)[C@@H](O[C@H]4[C@H](O)[C@@H](O)[C@@H](O[C@H]5[C@H](O)[C@@H](O)[C@@H](O[C@H]6[C@H](O)[C@@H](O)[C@@H](O[C@H]7[C@H](O)[C@@H](O)[C@@H](O[C@H]1[C@H](O)[C@H]2O)O[C@@H]7CO)O[C@@H]6CO)O[C@@H]5CO)O[C@@H]4CO)O[C@@H]3CO [α-CyD] the Highest non-toxic concentration (Vero E6/TMPRSS2 cells [1]; [5]) was 5.00 mM.

For hydroxypropyl-α-cyclodextrin [HP-α-CyD], the Highest non-toxic concentration (Vero E6/TMPRSS2 cells [1]; [5]) was at least 10.0 mM.

Work on COC[C@H]1O[C@@H]2O[C@H]3[C@H](OC)[C@@H](OC)[C@@H](O[C@H]4[C@H](OC)[C@@H](OC)[C@@H](O[C@H]5[C@H](OC)[C@@H](OC)[C@@H](O[C@H]6[C@H](OC)[C@@H](OC)[C@@H](O[C@H]7[C@H](OC)[C@@H](OC)[C@@H](O[C@H]8[C@H](OC)[C@@H](OC)[C@@H](O[C@H]1[C@H](OC)[C@H]2OC)O[C@@H]8COC)O[C@@H]7COC)O[C@@H]6COC)O[C@@H]5COC)O[C@@H]4COC)O[C@@H]3COC [TM-β-CyD] yielded a Highest non-toxic concentration (Vero E6/TMPRSS2 cells [1]; [5]) of 1.25 mM.

Work on OC[C@H]1O[C@@H]2O[C@H]3[C@H](O)[C@@H](O)[C@@H](O[C@H]4[C@H](O)[C@@H](O)[C@@H](O[C@H]5[C@H](O)[C@@H](O)[C@@H](O[C@H]6[C@H](O)[C@@H](O)[C@@H](O[C@H]7[C@H](O)[C@@H](O)[C@@H](O[C@H]8[C@H](O)[C@@H](O)[C@@H](O[C@H]9[C@H](O)[C@@H](O)[C@@H](O[C@H]1[C@H](O)[C@H]2O)O[C@@H]9CO)O[C@@H]8CO)O[C@@H]7CO)O[C@@H]6CO)O[C@@H]5CO)O[C@@H]4CO)O[C@@H]3CO [γ-CyD] yielded a Highest non-toxic concentration (Vero E6/TMPRSS2 cells [1]; [5]) of 2.50 mM.

In the case of COC[C@H]1O[C@@H]2O[C@H]3[C@H](OC(C)=O)[C@@H](OC)[C@@H](O[C@H]4[C@H](OC(C)=O)[C@@H](OC)[C@@H](O[C@H]5[C@H](OC(C)=O)[C@@H](OC)[C@@H](O[C@H]6[C@H](OC(C)=O)[C@@H](OC)[C@@H](O[C@H]7[C@H](OC(C)=O)[C@@H](OC)[C@@H](O[C@H]8[C@H](OC(C)=O)[C@@H](OC)[C@@H](O[C@H]1[C@H](OC(C)=O)[C@H]2OC)O[C@@H]8COC)O[C@@H]7COC)O[C@@H]6COC)O[C@@H]5COC)O[C@@H]4COC)O[C@@H]3COC [DMA-β-CyD], the “effect on spike protein-ACE2 binding” value [2] is reported as “did not interfere with this interaction”, the “effect on clotting time (JEV procoagulant activity)” value (from here on “effect on clotting time”) ([3]; 10 mM, 28°C) is reported as “clotting time remained similar to that of the control” and the “effect on clotting time” value ([3]; 10 mM, 37°C) is reported as “prolonged”. For the same molecule, the CC50 (Vero cells) was at least 100 mM, the CC50 (Vero E6/TMPRSS2 cells [4]) was at least 100 mM and the hemolysis (red blood cells; at 100 mM) was “did not induce hemolysis”.

With COC[C@H]1O[C@@H]2O[C@H]3[C@H](O)[C@@H](OC)[C@@H](O[C@H]4[C@H](O)[C@@H](OC)[C@@H](O[C@H]5[C@H](O)[C@@H](OC)[C@@H](O[C@H]6[C@H](O)[C@@H](OC)[C@@H](O[C@H]7[C@H](O)[C@@H](OC)[C@@H](O[C@H]1[C@H](O)[C@H]2OC)O[C@@H]7COC)O[C@@H]6COC)O[C@@H]5COC)O[C@@H]4COC)O[C@@H]3COC [DM-α-CyD] the Highest non-toxic concentration (Vero E6/TMPRSS2 cells [1]; [5]) was 2.50 mM.

In the case of COC[C@H]1O[C@@H]2O[C@H]3[C@H](O)[C@@H](OC)[C@@H](O[C@H]4[C@H](O)[C@@H](OC)[C@@H](O[C@H]5[C@H](O)[C@@H](OC)[C@@H](O[C@H]6[C@H](O)[C@@H](OC)[C@@H](O[C@H]7[C@H](O)[C@@H](OC)[C@@H](O[C@H]8[C@H](O)[C@@H](OC)[C@@H](O[C@H]1[C@H](O)[C@H]2OC)O[C@@H]8COC)O[C@@H]7COC)O[C@@H]6COC)O[C@@H]5COC)O[C@@H]4COC)O[C@@H]3COC [DM-β-CyD, 2,6-di-O-methyl-β-cyclodextrin], the Highest non-toxic concentration (Vero E6/TMPRSS2 cells [1]; African green monkey) is reported as 5.00 mM, the “effect on clotting time” value ([3]; 5 mM, 37°C) is reported as “had no effect” and the CC50 (in vitro) is reported as 5.74 mM. The “concentration causing 50% hemolysis” value (red blood cells) was 1000 µM.

B1: bavituximab (antibody, chains of the INN, looked up, V domains shown)
VH: EVQLQQSGPELEKPGASVKLSCKASGYSFTGYNMNWVKQSHGKSLEWIGHIDPYYGDTSYNQKFRGKATLTVDKSSSTAYMQLKSLTSEDSAVYYCVKGGYYGHWYFDVWGAGTTVTVSS
VL: DIQMTQSPSSLSASLGERVSLTCRASQDIGSSLNWLQQGPDGTIKRLIYATSSLDSGVPKRFSGSRSGSDYSLTISSLESEDFVDYYCLQYVSSPPTFGAGTKLELK
In the case of B1, the animals survived (Pichinde virus) is listed as 50%.
